According to ChEMBL document CHEMBL3091289, “Design of fluorinated 5-HT(4)R antagonists: influence of the basicity and lipophilicity toward the 5-HT(4)R binding affinities” (Bioorg Med Chem, 2013):

Assays:
[1] = molecular target: 5-hydroxytryptamine receptor 4 (Cavia porcellus) (UniProt O70528); assay: Displacement of [3H]GR113808 from 5HT4R in guinea pig striatal membranes at 10^-8 M; format: cell membranes; conditions: Striatum, Membrane
[2] = molecular target: 5-hydroxytryptamine receptor 4 (Cavia porcellus) (UniProt O70528); assay: Displacement of [3H]GR113808 from 5HT4R in guinea pig striatal membranes at 10^-6 M; format: cell membranes; conditions: Striatum, Membrane
[3] = molecular target: 5-hydroxytryptamine receptor 4 (Cavia porcellus, UniProt O70528); assay: Displacement of [3H]GR113808 from 5HT4R in guinea pig striatal membranes; format: cell membranes, Striatum, Membrane
Sequence of 5-hydroxytryptamine receptor 4 (Cavia porcellus, UniProt O70528) (O70528 whole entry): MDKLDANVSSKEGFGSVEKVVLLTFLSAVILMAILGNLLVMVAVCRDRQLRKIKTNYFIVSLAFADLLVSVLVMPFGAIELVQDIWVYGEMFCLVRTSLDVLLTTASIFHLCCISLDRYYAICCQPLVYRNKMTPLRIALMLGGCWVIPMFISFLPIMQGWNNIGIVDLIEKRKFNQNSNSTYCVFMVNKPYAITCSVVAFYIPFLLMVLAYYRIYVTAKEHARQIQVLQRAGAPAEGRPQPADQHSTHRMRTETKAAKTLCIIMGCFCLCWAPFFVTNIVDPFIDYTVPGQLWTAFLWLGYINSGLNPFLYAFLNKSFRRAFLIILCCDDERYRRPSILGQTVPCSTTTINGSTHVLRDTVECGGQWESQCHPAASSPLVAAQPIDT

[4] = molecular target: 5-hydroxytryptamine receptor 5A (Homo sapiens, UniProt P47898); assay: Binding affinity to human 5HT5A
Sequence of 5-hydroxytryptamine receptor 5A (P47898 whole entry): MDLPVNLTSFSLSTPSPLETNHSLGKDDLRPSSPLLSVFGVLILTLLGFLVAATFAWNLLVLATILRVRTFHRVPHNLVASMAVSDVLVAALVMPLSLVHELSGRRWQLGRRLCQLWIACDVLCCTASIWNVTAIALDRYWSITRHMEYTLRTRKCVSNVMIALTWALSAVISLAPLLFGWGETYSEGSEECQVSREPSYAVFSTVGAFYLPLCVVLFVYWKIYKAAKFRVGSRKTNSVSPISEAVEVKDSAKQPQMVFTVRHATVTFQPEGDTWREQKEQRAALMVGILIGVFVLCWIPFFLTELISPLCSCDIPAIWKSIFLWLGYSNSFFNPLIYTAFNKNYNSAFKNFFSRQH

[5] = molecular target: T1, 5-hydroxytryptamine receptor 3A (Homo sapiens, UniProt P46098); assay: Binding affinity to human 5HT3
T1 sequence (P46098 whole entry): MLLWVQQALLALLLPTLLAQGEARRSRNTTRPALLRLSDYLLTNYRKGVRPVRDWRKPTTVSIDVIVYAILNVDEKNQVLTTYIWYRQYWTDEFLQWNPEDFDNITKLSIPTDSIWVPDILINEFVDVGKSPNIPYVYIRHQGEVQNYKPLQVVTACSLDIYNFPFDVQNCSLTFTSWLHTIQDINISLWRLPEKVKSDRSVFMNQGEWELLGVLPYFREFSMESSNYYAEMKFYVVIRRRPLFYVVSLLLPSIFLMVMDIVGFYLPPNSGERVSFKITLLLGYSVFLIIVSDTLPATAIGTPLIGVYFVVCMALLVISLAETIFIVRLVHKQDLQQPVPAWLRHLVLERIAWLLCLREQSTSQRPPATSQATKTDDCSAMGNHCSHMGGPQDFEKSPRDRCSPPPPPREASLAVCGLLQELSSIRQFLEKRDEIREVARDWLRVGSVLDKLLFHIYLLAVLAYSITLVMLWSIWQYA

[6] = molecular target: 5-hydroxytryptamine receptor 6 (Homo sapiens, UniProt P50406); assay: Binding affinity to human 5HT6
Sequence of 5-hydroxytryptamine receptor 6 (P50406 whole entry): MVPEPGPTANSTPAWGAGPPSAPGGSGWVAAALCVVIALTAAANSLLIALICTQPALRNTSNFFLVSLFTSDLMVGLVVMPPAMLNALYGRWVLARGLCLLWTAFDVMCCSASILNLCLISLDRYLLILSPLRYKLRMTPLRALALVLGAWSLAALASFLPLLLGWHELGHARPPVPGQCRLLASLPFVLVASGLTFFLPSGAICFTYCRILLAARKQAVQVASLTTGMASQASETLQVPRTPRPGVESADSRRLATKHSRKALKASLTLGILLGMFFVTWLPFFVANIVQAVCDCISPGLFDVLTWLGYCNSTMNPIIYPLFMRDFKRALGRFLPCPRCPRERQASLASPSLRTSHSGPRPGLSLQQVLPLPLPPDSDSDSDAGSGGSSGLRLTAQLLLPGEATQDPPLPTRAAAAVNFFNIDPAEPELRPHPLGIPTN

[7] = molecular target: 5-hydroxytryptamine receptor 7 (Homo sapiens, UniProt P34969); assay: Binding affinity to human 5HT7
Sequence of 5-hydroxytryptamine receptor 7 (P34969 whole entry): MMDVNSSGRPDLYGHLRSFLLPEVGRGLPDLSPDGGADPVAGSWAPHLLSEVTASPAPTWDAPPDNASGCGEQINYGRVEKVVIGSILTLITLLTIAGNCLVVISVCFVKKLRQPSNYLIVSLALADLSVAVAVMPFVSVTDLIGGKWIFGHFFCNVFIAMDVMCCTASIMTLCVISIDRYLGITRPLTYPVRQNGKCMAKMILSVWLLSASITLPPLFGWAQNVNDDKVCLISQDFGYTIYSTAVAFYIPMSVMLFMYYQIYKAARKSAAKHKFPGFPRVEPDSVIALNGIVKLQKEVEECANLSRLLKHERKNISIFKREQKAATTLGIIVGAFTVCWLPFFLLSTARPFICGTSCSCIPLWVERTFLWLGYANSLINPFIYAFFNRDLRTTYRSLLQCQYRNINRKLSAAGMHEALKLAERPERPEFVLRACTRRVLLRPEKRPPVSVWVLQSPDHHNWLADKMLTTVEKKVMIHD

[8] = molecular target: T2, 5-hydroxytryptamine receptor 4 (Homo sapiens, UniProt Q13639); assay: Binding affinity to human 5HT4R
T2 sequence (Q13639 whole entry): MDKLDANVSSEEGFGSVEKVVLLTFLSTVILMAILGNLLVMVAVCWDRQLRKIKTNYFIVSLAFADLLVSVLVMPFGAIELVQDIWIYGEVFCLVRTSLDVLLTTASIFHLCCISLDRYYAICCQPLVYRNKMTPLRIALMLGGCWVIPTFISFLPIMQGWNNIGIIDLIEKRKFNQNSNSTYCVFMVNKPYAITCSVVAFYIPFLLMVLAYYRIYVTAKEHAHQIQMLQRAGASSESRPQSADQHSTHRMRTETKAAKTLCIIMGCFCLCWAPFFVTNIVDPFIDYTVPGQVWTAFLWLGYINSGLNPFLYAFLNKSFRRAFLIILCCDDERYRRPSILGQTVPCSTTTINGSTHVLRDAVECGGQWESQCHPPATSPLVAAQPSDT

[9] = molecular target: 5-hydroxytryptamine receptor 1B (Homo sapiens, UniProt P28222); assay: Binding affinity to human 5HT1B
Sequence of 5-hydroxytryptamine receptor 1B (P28222 whole entry): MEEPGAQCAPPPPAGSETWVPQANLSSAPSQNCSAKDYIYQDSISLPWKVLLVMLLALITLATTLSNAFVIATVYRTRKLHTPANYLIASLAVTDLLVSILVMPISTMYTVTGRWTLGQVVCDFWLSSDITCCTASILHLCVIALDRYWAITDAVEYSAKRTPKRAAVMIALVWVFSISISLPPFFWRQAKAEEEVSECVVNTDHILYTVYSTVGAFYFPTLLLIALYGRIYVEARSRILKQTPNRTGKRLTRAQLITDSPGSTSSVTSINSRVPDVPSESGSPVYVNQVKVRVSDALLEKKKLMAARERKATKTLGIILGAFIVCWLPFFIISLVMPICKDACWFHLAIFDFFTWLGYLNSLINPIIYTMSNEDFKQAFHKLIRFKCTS

[10] = molecular target: T2, 5-hydroxytryptamine receptor 4; assay: Intrinsic activity at human 5HT4R
[11] = molecular target: T3, 5-hydroxytryptamine receptor 2C (Homo sapiens, UniProt P28335); assay: Binding affinity to human 5HT2C
T3 sequence (P28335 whole entry): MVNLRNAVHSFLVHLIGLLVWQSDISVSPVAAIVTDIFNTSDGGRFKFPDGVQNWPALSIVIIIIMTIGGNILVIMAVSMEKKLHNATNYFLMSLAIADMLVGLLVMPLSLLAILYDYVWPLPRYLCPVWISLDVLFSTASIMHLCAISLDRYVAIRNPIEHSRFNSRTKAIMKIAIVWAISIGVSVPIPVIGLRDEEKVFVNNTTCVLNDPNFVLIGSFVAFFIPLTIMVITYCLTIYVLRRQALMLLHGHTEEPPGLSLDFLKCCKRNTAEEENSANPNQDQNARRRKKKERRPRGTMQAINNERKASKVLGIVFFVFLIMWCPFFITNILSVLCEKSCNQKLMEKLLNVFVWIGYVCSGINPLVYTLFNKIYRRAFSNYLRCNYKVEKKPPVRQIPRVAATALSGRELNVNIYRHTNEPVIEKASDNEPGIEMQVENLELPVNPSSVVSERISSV

[12] = molecular target: 5-hydroxytryptamine receptor 2B (Homo sapiens, UniProt P41595); assay: Binding affinity to human 5HT2B
Sequence of 5-hydroxytryptamine receptor 2B (P41595 whole entry): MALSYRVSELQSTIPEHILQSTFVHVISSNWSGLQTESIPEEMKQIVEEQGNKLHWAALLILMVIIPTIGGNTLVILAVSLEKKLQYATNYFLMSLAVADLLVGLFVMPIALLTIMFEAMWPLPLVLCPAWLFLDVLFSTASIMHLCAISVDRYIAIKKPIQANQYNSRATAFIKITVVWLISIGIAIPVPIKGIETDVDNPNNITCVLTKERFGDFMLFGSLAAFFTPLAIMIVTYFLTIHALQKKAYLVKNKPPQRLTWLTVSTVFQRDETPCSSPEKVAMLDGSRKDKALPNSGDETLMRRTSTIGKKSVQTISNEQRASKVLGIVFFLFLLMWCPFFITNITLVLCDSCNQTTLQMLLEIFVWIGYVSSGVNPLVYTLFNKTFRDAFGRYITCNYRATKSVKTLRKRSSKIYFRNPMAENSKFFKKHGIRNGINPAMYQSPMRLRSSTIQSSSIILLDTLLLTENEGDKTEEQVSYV

[13] = molecular target: T4, 5-hydroxytryptamine receptor 1A (Homo sapiens, UniProt P08908); assay: Binding affinity to human 5HT1A
T4 sequence (P08908 whole entry): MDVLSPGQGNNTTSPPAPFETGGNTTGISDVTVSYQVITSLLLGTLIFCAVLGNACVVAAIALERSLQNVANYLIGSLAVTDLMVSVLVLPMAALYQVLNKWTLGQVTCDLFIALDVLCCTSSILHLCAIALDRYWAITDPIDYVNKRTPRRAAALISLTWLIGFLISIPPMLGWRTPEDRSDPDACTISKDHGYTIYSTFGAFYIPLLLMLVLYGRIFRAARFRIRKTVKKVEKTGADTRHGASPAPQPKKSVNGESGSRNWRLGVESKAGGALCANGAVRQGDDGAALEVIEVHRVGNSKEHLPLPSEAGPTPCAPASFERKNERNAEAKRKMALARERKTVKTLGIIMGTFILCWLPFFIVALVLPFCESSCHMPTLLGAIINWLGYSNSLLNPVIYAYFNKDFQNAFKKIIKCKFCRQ

[14] = molecular target: 5-hydroxytryptamine receptor 1D (Homo sapiens, UniProt P28221); assay: Binding affinity to human 5HT1D
Sequence of 5-hydroxytryptamine receptor 1D (P28221 whole entry): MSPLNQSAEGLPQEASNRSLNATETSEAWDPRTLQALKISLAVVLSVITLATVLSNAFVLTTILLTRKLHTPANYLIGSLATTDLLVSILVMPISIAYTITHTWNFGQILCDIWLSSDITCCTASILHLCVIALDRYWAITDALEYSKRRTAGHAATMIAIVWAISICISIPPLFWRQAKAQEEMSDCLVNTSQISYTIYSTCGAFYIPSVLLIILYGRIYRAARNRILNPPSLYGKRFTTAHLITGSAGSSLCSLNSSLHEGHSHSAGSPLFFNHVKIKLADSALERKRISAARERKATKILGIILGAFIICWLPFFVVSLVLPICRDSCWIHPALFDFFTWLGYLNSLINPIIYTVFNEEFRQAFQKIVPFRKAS

[15] = molecular target: 5-hydroxytryptamine receptor 2A (Homo sapiens, UniProt P28223); assay: Binding affinity to human 5HT2A
Sequence of 5-hydroxytryptamine receptor 2A (P28223 whole entry): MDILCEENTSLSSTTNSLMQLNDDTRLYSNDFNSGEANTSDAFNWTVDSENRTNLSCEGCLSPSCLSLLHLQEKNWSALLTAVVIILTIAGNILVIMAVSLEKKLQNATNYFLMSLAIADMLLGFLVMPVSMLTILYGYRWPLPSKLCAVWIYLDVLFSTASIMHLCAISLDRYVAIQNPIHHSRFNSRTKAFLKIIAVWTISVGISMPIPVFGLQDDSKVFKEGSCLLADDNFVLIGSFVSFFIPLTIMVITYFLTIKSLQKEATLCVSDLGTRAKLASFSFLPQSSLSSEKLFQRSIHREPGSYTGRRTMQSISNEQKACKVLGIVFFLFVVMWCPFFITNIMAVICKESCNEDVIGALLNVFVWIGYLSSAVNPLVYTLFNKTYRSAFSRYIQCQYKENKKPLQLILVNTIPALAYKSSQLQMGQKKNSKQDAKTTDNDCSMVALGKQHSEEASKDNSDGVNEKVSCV

Sequence of 5-hydroxytryptamine receptor 4 (Cavia porcellus) (O70528 whole entry): as the sequence (O70528 whole entry) above

| inhibition [1] [%] | inhibition [2] [%] | Ki [3] [nM] | Compound | also measured |
| --- | --- | --- | --- | --- |
| 80 | 100 | 9 | Fc1cccc2c1nc(OCC1CCN(CCC(F)(F)F)CC1)c1cccnc12 | Ki [4]: > 10000 nM; Ki [5]: 1200 nM; Ki [6]: > 10000 nM; Ki [7]: > 10000 nM; Ki [8]: 0.11 nM; Ki [9]: > 10000 nM; Kb [10]: 0.079 nM; Ki [11]: > 10000 nM; Ki [12]: 230 nM; Ki [13]: > 10000 nM; Ki [14]: > 10000 nM; Ki [15]: > 10000 nM |
| 26 | 100 | 91.4 | Fc1cccc2c1nc(OCC1CCN(CC(F)F)CC1)c1cccnc12 |  |
| 0 | 58 |  | FC(F)CN1CCC(COc2nc3ccccc3c3ccccc23)CC1 |  |
| 0 | 3 |  | Fc1cccc2c1nc(OCC1CCN(CC(F)(F)F)CC1)c1ccccc12 |  |
| 0 | 93 |  | Fc1cccc2c1nc(OCC1CCN(CC(F)F)CC1)c1ccccc12 |  |
| 80 | 100 | 4.2 | Fc1cccc2c1nc(OCC1CCN(CCCC(F)(F)F)CC1)c1cccnc12 | Ki [4]: > 10000 nM; Ki [5]: 2600 nM; Ki [6]: > 10000 nM; Ki [7]: > 10000 nM; Ki [8]: 0.2 nM; Ki [9]: > 10000 nM; Kb [10]: 0.199 nM; Ki [11]: 980 nM; Ki [12]: 190 nM; Ki [13]: > 10000 nM; Ki [14]: > 10000 nM; Ki [15]: 8700 nM |

Second part, the compound before the results:

| Compound | inhibition [1] [%] | inhibition [2] [%] | Ki [3] [nM] | also measured |
| --- | --- | --- | --- | --- |
| FC(F)(F)C(F)(F)CN1CCC(COc2nc3ccccc3c3ccccc23)CC1 | 0 | 1 |  |  |
| FC(F)(F)CN1CCC(COc2nc3ccccc3c3ccccc23)CC1 | 0 | 1 |  |  |
| Fc1cccc2c1nc(OCC1CCN(CCC(F)(F)F)CC1)c1ccccc12 | 61 | 100 | 22 |  |
| CCCN1CCC(COc2nc3c(F)cccc3c3ncccc23)CC1 | 94 |  |  |  |
| Fc1cccc2c1nc(OCC1CCN(CC(F)(F)C(F)(F)F)CC1)c1ccccc12 | 0 | 4 |  |  |
| Fc1cccc2c1nc(OCC1CCN(CCCC(F)(F)F)CC1)c1ccccc12 | 49 | 100 | 14.1 |  |
